Measured values: patent publication US11203574B2 (BioCryst Pharmaceuticals, Inc., priority 2014, dated 2021)
pKi: −log10 of the molar value.

target: human plasma kallikrein (Homo sapiens (Human), UniProt P03952); test: Plasma kallikrein activity assay (chromogenic substrate S2302); assay type: biochemical; settings: 2 nM kallikrein, 80 μM S2302, 30° C., pH 7.8; Ki by Cheng-Prusoff equation; values given as ranges; read-out: Ki
Sequence (P03952 whole entry, looked up): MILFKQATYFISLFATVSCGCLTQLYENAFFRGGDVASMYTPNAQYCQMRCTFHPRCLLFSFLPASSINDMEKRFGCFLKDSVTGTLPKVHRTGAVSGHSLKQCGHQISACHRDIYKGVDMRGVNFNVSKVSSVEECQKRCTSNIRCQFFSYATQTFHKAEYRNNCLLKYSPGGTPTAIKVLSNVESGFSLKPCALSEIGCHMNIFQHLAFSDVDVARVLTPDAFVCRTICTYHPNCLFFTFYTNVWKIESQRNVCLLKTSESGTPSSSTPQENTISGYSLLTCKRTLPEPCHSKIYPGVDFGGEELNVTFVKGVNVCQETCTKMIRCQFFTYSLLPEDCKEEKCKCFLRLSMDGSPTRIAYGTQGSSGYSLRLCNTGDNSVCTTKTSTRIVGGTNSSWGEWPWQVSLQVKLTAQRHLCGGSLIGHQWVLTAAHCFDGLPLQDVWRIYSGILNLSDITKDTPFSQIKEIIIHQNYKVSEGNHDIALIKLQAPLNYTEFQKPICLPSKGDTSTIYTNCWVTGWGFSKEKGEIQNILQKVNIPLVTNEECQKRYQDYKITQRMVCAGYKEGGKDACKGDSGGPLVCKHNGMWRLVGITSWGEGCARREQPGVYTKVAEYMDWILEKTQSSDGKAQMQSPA
Sequence (P03952 whole entry partner, looked up): as the sequence (P03952 whole entry, looked up) above
Protocol: Plasma Kallikrein Activity Assay.
The effect of compounds of the invention on human plasma kallikrein activity was determined using the chromogenic substrates (DiaPharma Group, Inc., West Chester, Ohio, USA). In these experiments, 2 nM kallikrein (Enzyme Research Laboratories, South Bend, Ind., USA) was incubated with 80 μM S2302 (H-D-Pro-Phe-Arg-p-nitroaniline) in the absence or presence of increasing concentrations of compounds of the invention in a final volume of 200 μL Tris-HCl buffer (200 mM NaCl; mM CaCl2; 50 mM Tris-HCl, pH 7.8).
Data were analyzed using SigmaPlot software (Systat Software, Inc., San Jose, Calif., USA) (Four Parameter Logistic Curve).

Compound | pKi
NCc1cccc(-n2nc(C(F)(F)F)cc2C(=O)Nc2cccc(C(NCC3CC3)c3ccccn3)c2)c1 (centres unmarked) [83c, 1-(3-(aminomethyl)phenyl)-N-(3-((cyclopropylmethylamino)(pyridin-2-yl)methyl)phenyl)-3-(trifluoromethyl)-1H-pyrazole-5-carboxamide] | 7.30 to 10.00
Cc1ccc(C)c(C(NCC2CC2)c2cccc(NC(=O)c3cc(C(F)(F)F)nn3-c3cccc(CN)c3)c2)c1 (centres unmarked) [202f, 1-(3-(aminomethyl)phenyl)-N-(3-(((cyclopropylmethyl)amino)(2,5-dimethylphenyl)methyl)phenyl)-3-(trifluoromethyl)-1H-pyrazole-5-carboxamide] | 7.30 to 10.00
N#Cc1ccc(C(N)(CCC2CC2)c2ccc(F)c(NC(=O)c3cc(C(N)=O)nn3-c3cccc(CN)c3)c2)cc1 (single isomer, unassigned; (+)) [231d, (+)-N^5-(5-(1-amino-1-(4-cyanophenyl)-3-cyclopropylpropyl)-2-fluorophenyl)-1-(3-(aminomethyl)phenyl)-1H-pyrazole-3,5-dicarboxamide] | 7.30 to 10.00
NCc1cccc(-n2nc(C(F)(F)F)cc2C(=O)Nc2cc(C(CCC3CC3)N3C(=O)CCC3=O)ccc2F)c1 (centres unmarked) [260b, 1-(3-(aminomethyl)phenyl)-N-(5-(3-cyclopropyl-1-(2,5-dioxopyrrolidin-1-yl)propyl)-2-fluorophenyl)-3-(trifluoromethyl)-1H-pyrazole-5-carboxamide] | 7.30 to 10.00
Cc1cc(C(N)(CCC2CC2)c2ccc(F)c(NC(=O)c3cc(C(F)(F)F)nn3-c3cccc(CN)c3)c2)ccn1 (single isomer, unassigned; (+)) [266j, (+)-N-(5-(1-amino-3-cyclopropyl-1-(2-methylpyridin-4-yl)propyl)-2-fluorophenyl)-1-(3-(aminomethyl)phenyl)-3-(trifluoromethyl)-1H-pyrazole-5-carboxamide] | 7.30 to 10.00
CN(C)c1ccc(C(NCC2CC2)c2cccc(NC(=O)c3cc(C(F)(F)F)nn3-c3cccc(CN)c3)c2)c2ccccc12 (centres unmarked) [126g, 2-(3-Aminomethyl-phenyl)-5-trifluoromethyl-2H-pyrazole-3-carboxylic acid {3-[(cyclopropylmethyl-amino)-(4-dimethylamino-naphthalen-1-yl)-methyl]-phenyl}-amide] | 7.30 to 10.00
NCc1cccc(-n2nc(C(F)(F)F)cc2C(=O)Nc2cccc(C(OCC3CC3)c3ccc(O)cc3)c2)c1 (centres unmarked) [149b, 1-(3-(aminomethyl)phenyl)-N-(3-((cyclopropylmethoxy)(4-hydroxyphenyl)methyl)phenyl)-3-(trifluoromethyl)-1H-pyrazole-5-carboxamide] | 7.30 to 10.00
NCc1cccc(-n2nc(C(F)(F)F)cc2C(=O)Nc2cccc(C(NCC3CC3)c3ccc(O)c(Br)c3)c2)c1 (centres unmarked) [207j, 1-(3-(Aminomethyl)phenyl)-N-(3-((3-bromo-4-hydroxyphenyl)(cyclopropylmethylamino)methyl)phenyl)-3-(trifluoromethyl)-1H-pyrazole-5-carboxamide] | 7.30 to 10.00
NCc1cccc(-n2nc(C(F)(F)F)cc2C(=O)Nc2cccc(C(NCC3CC3)c3nccs3)c2)c1 (centres unmarked) [85c, 1-(3-(aminomethyl)phenyl)-N-(3-((cyclopropylmethylamino)(thiazol-2-yl)methyl)phenyl)-3-(trifluoromethyl)-1H-pyrazole-5-carboxamide] | 7.30 to 10.00
Nc1nccc2ccc(-n3nc(C(F)(F)F)cc3C(=O)Nc3cc(C(CCC4CC4)n4ccncc4=O)ccc3F)cc12 (centres unmarked) [259d, 1-(1-aminoisoquinolin-7-yl)-N-(5-(3-cyclopropyl-1-(2-oxopyrazin-1(2H)-yl)propyl)-2-fluorophenyl)-3-(trifluoromethyl)-1H-pyrazole-5-carboxamide] | 7.30 to 10.00
CC(C)COC(c1ccccc1)c1cccc(NC(=O)c2cc(C(F)(F)F)nn2-c2cccc(CN)c2)c1 (centres unmarked) [18i, 1-(3-(aminomethyl)phenyl)-N-(3-(isobutoxy(phenyl)methyl)phenyl)-3-(trifluoromethyl)-1H-pyrazole-5-carboxamide] | 7.00 to 7.30
